Assay results from US12643912B2, “Macrocyclic compounds, a process for their preparation and pharmaceutical compositions containing them” (LES LABORATOIRES SERVIER, priority 2020, dated 2026).

Experiments:
[1] = system: Nrf2 (Keap1-NRF2 nuclear translocation); assay: U2OS translocation assay (PathHunter U2OS Keap1-NRF2 Nuclear Translocation Cell Line); assay type: cell-based; conditions: Homo sapiens, U2OS, 3 h, read-out: CELLULAR U2OS EC50 (nM), U2OS Keap1-NRF2 nuclear translocation cells, 3 h incubation, luminescence, normalized between 1% DMSO and 10 μM andrographolide
In short: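 Enzyme-fragment complementation read-out: luminescence after 60 min of detection reagent at room temperature, following a 3 h, 37° C compound exposure of engineered U2OS Keap1-NRF2 translocation cells (1% FBS medium). Signal scaled from 1% DMSO basal to 10 μM andrographolide maximum.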

Keap1 (A321-C624) (h) = target: T1, Keap1 (A321-C624) (h) (Homo sapiens, UniProt Q14145); assay: Surface Plasmon Resonance binding assay to Kelch domain of KEAP1; conditions: Biacore T200, 25° C., immobilized His-Thromb-KEAP1(A321-C624), single cycle kinetics, KD=kd/ka from 1:1 fit; read-out: Keap1 (A321-C624) (h) direct/SPR (KD)
T1 construct: His-Thromb-KEAP1(A321-C624) acquired from Novalix (batch PU-P01) was immobilized covalently by amine coupling; His tag (N); thrombin cleavage site (Thromb) (N); purchased Novalix batch PU-P01
In short: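 His-Thromb-KEAP1(A321-C624) amine-coupled on CM5 chip to 1250 RU; amine blank reference. Run at 25° C in HEPES pH 7.4, 150 mM NaCl, 3 mM EDTA, 1 mM TCEP, 0.05% P20, 5% DMSO; 180 s association, 720 s dissociation, 50 μL/min. KD = kd/ka from 1:1 kinetic fit, double-referenced, DMSO solvent-corrected.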

T1 sequence (Q14145 321-624): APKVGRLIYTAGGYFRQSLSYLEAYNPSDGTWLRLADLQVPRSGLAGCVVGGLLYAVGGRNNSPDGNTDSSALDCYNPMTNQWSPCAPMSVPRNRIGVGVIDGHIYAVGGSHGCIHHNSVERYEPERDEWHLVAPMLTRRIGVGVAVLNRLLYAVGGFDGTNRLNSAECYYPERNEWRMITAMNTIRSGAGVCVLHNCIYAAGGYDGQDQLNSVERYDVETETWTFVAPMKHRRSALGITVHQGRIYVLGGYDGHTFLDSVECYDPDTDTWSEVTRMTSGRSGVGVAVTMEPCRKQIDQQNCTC

SMILES | Kd (Keap1 (A321-C624) (h)) | EC50 [1]
Cc1ccc2cc1CN1Cc3cc(ccc3OS1(=O)=O)N(C)CCCCn1nnc3c(C)c(ccc31)C2CC(=O)O (centres unmarked) [Example 42, [4,21,31-Trimethyl-27,27-dioxo-26-oxa-27λ^6-thia-1,14,15,16,21-pentaazahexacyclo[20.5.3.1^3,70.1^9,130.0^12,160.0^25,29]dotriaconta-3(32),4,6,9(31),10,12,14,22,24,29-decaen-8-yl]acetic acid] | 1.57 nM | 21.4 nM
Cc1ccc2cc1CN1Cc3cc(ccc3OS1(=O)=O)N(C)C(=O)CCCn1nnc3c(C)c(ccc31)C2CC(=O)O (centres unmarked) [Example 43, [4,21,31-Trimethyl-20,27,27-trioxo-26-oxa-27λ^6-thia-1,14,15,16,21-pentaazahexacyclo[20.5.3.1^3,70.1^9,130.0^12,160.0^25,29]dotriaconta-3(32),4,6,9(31),10,12,14,22,24,29-decaen-8-yl]acetic acid] | 2.92 nM | 570 nM
Cc1ccc2cc1CN1Cc3cc(ccc3OS1(=O)=O)OC[C@H](O)CCn1nnc3c(C)c(ccc31)C2CC(=O)O (stereo partly drawn) [Example 44, [(19R)-19-hydroxy-4,31-dimethyl-27,27-dioxo-21,26-dioxa-27λ^6-thia-1,14,15,16-tetraazahexacyclo[20.5.3.1^3,70.1^9,130.0^12,160.0^25,29]dotriaconta-3(32),4,6,9(31),10,12,14,22,24,29-decaen-8-yl]acetic acid] | 0.146 nM | 292 nM
Cc1ccc2cc1CN1Cc3cc(ccc3OS1(=O)=O)OCCCCn1nnc3c(C)c(cc(Cl)c31)[C@@H]2CC(=O)O [Example 50, [(8R)-11-Chloro-4,31-dimethyl-27,27-dioxo-21,26-dioxa-27λ^6-thia-1,14,15,16-tetraazahexacyclo[20.5.3.1^3,70.1^9,130.0^12,160.0^25,29]dotriaconta-3(32),4,6,9(31),10,12,14,22,24,29-decaen-8-yl]acetic acid] | 5.97 nM | 139 nM
Cc1ccc2cc1CN1Cc3c(ccc(c3Cl)OCCCCn3nnc4c(C)c(cc(Cl)c43)[C@@H]2CC(=O)O)OS1(=O)=O [Example 51, [(8R)-11,30-Dichloro-4,31-dimethyl-27,27-dioxo-21,26-dioxa-27λ^6-thia-1,14,15,16-tetraazahexacyclo[20.5.3.1^3,70.1^9,130.0^12,160.0^25,29]dotriaconta-3(32),4,6,9(31),10,12,14,22,24,29-decaen-8-yl]acetic acid] | 2.03 nM | 103 nM

Further lines, with some results ahead:

Kd (Keap1 (A321-C624) (h)) | SMILES | EC50 [1]
8.86 nM | Cc1ccc2cc1CN1Cc3cc(c(Cl)cc3OS1(=O)=O)OCCCCn1nnc3c(C)c(cc(Cl)c31)[C@@H]2CC(=O)O [Example 52, [(8R)-11,23-Dichloro-4,31-dimethyl-27,27-dioxo-21,26-dioxa-27λ^6-thia-1,14,15,16-tetraazahexacyclo[20.5.3.1^3,70.1^9,130.0^12,160.0^25,29]dotriaconta-3(32),4,6,9(31),10,12,14,22,24,29-decaen-8-yl]acetic acid] | 180 nM
2 nM | [2H]C([2H])(C(=O)O)[C@@H]1c2ccc(C)c(c2)CN2Cc3cc(ccc3OS2(=O)=O)OCCCCn2nnc3c(C)c1ccc32 [Example 55a, [(8R)-4,31-Dimethyl-27,27-dioxo-21,26-dioxa-27λ^6-thia-1,14,15,16-tetraazahexacyclo[20.5.3.1^3,70.1^9,130.0^12,160.0^25,29]dotriaconta-3(32),4,6,9(31),10,12,14,22,24,29-decaen-8-yl](^2H2)acetic acid] | 183 nM
2.5 nM | [2H]C([2H])(C(=O)O)[C@H]1c2ccc(C)c(c2)CN2Cc3cc(ccc3OS2(=O)=O)OCCCCn2nnc3c(C)c1ccc32 [Example 55b, [(8S)-4,31-Dimethyl-27,27-dioxo-21,26-dioxa-27λ^6-thia-1,14,15,16-tetraazahexacyclo[20.5.3.1^3,70.1^9,130.0^12,160.0^25,29]dotriaconta-3(32),4,6,9(31),10,12,14,22,24,29-decaen-8-yl](^2H2)acetic acid] | 15.8 nM
0.195 nM | Cc1c2ccc3c1nnn3CCCCOc1ccc3c(c1)CN([C@H](C)c1cc(ccc1Cl)[C@@H]2CC(=O)O)S(=O)(=O)O3 [Example 64a, [(2R,8S)-4-chloro-2,31-dimethyl-27,27-dioxo-21,26-dioxa-27λ^6-thia-1,14,15,16-tetraazahexacyclo[20.5.3.1^3,70.1^9,130.0^12,160.0^25,29]dotriaconta-3(32),4,6,9(31),10,12,14,22,24,29-decaen-8-yl]acetic acid] | 24 nM
8.96 nM | Cc1ccc2cc1[C@@H](C)N1Cc3cc(ccc3OS1(=O)=O)OCCC1(CCOCC1)Cn1nnc3c(C)c(ccc31)C2CC(=O)O (stereo partly drawn) [Example 68, [(2R)-2,4,31-Trimethyl-27,27-dioxo-27λ^6-spiro[21,26-dioxa-27-thia-1,14,15,16-tetraazahexacyclo[20.5.3.1^3,70.1^9,130.0^12,160.0^25,29]dotriaconta-3(32),4,6,9(31),10,12,14,22,24,29-decaene-18,4′-oxan]-8-yl]acetic acid] | 38.3 nM
